Measurements taken from patent US7910559B2, “Decladinosyl-macrolides with anti-inflammatory activity” (GlaxoSmithKline istrazivacki centar Zagreb d.o.o., priority 2005, dated 2011).
Read-outs that look alike come from different tables or passages of the source.

Tests used:
Assay type in all cases: cell-based
[1] = tested on: human TNF-α; test: Inhibition of TNF-α production by stimulated human peripheral blood leukocytes in vitro (ELISA); conditions: Homo sapiens, Leukocyte, PBL, read-out: Percentage of inhibition of TNF-α production; for inhibition at 10 µM: compound 10 μM; for inhibition at 50 µM: compound 50 μM
Procedure: (§1) Substances, used in in vitro experiments, were dissolved in dimethyl sulfoxide (DMSO) (Kemika, Croatia) at concentrations of 50 mM and 10 mM and were further diluted to the final concentrations of […] in 1 mL Dulbecco's modified Eagle medium (DMEM) supplemented with 1% heat inactivated fetal bovine serum (FBS), 1% glutamax, 50 U/ml penicillin, 50 μg/ml streptomycin and 2.5 μg/mL Fungizone (amphotericin B). Media and all media supplements were purchased from Gibco, Australia, except FBS that was from Sigma, USA.
(§2) Peripheral blood leukocytes (PBL) were obtained from venous blood of healthy volunteers by sedimentation on 2% dextran T-500 (Amersham Biosciences, USA) and subsequent centrifugations of leukocyte-rich plasma.
(§3) Peripheral blood leukocytes (PBL), isolated as described above, were seeded in a 48-well plate at a concentration of 3-5×10^6 cell per well in culture medium consisting of RPMI 1640 medium (Institute of Immunology, Croatia) supplemented with 10% heat-inactivated fetal calf serum (FCS, Biowhittaker, USA), 100 U/ml penicillin (Gibco, Australia), 100 μg/ml streptomycin (Gibco, Australia) and 2 mM L-glutamine (Gibco, Australia), and preincubated with the tested compounds for 2 h at 37° C., in an atmosphere of 5% CO2, and 90% humidity. Afterwards, stimuli (Sigma, USA) were added to a final concentration of 2 μg/mL lipopolysaccharide (LPS), 1 μg/mL phorbol 12-myristate 13-acetate (PMA) or 120 μg/mL zymosan. Samples were incubated overnight under conditions described above. At the end of incubation supernatants were transferred to eppendorf tubes and centrifuged for 10 min at 1500 g. Concentrations of human TNF-α, IL-1β, IL-6 and IL-8 were determined in cell supernatants by sandwich ELISA, using capture and detection antibodies (R&D, USA) according to manufacturer's recommendations.
(§4) Inhibition (as percentage) was calculated using the following formula: % inhibition=(1−concentration of cytokines in sample/concentration of cytokines in positive control)×100 where “positive control” refers to stimulated samples not treated with substances.

[2] = tested on: human IL-1β; test: Inhibition of IL-1β production by stimulated human peripheral blood leukocytes in vitro (ELISA); conditions: Homo sapiens, Leukocyte, PBL, read-out: Percentage of inhibition of IL-1β production; for inhibition at 10 µM: compound 10 μM; for inhibition at 50 µM: compound 50 μM
Procedure: as §1, §2, §3, §4

[3] = tested on: human IL-6; test: Inhibition of IL-6 production by stimulated human peripheral blood leukocytes in vitro (ELISA); conditions: Homo sapiens, Leukocyte, PBL, read-out: Percentage of inhibition of IL-6 production; for inhibition at 10 µM: compound 10 μM; for inhibition at 50 µM: compound 50 μM
Procedure: as §1, §2, §3, §4

[4] = tested on: human IL-8; test: Inhibition of IL-8 production by stimulated human peripheral blood leukocytes in vitro (ELISA); conditions: Homo sapiens, Leukocyte, PBL, read-out: Percentage of inhibition of IL-8 production; for inhibition at 10 µM: compound 10 μM; for inhibition at 50 µM: compound 50 μM
Procedure: as §1, §2, §3, §4

[5] = tested on: A549; conditions: human, 24 h
Procedure: (§5) Anti-inflammatory activity of compounds, i.e. observed inhibition of cytokine production and inhibition of proliferation in vitro, is not a consequence of their cytotoxicity.
(§6) Measurement of the succinate dehydrogenase activity in living cells was performed in order to assess the cytotoxicity of compounds of the invention. Cells were cultured for 24 hours in RPMI medium as described above at 37° C., in the presence of the tested compounds at concentrations of 50 μM and 12.5 μM. Afterwards, MTT [3-(4,5-dimethylthiazole-2-yl)-2,5-diphenyl tetrazolium bromide] (Promega, USA) as detection reagent was added and incubated for 0.5-2 hours. The amount of produced MTT-Formazan was determined spectrophotometrically at 490 nm (Mosmann, J. Immunol. Methods, 1983, 65: 55-63).
(§7) Percentage of viable cells was calculated using the following formula: % viable cells=[…]

[6] = tested on: Hep G2; conditions: human, 24 h
Procedure: as §5, §6, §7

[7] = tested on: THP-1; conditions: human, 24 h
Procedure: as §5, §6, §7

SMILES	inhibition at 10 µM ([1]; LPS stimulation) [%]	inhibition at 50 µM ([1]; LPS stimulation) [%]	inhibition at 10 µM ([1]; PMA stimulation) [%]	inhibition at 50 µM ([1]; PMA stimulation) [%]	inhibition at 10 µM ([1]; zymosan stimulation) [%]	inhibition at 50 µM ([1]; zymosan stimulation) [%]	inhibition at 10 µM ([2]; LPS stimulation) [%]	inhibition at 50 µM ([2]; LPS stimulation) [%]	inhibition at 10 µM ([2]; PMA stimulation) [%]	inhibition at 50 µM ([2]; PMA stimulation) [%]	inhibition at 10 µM ([2]; zymosan stimulation) [%]	inhibition at 50 µM ([2]; zymosan stimulation) [%]	inhibition at 10 µM ([3]; LPS stimulation) [%]	inhibition at 50 µM ([3]; LPS stimulation) [%]	inhibition at 10 µM ([3]; PMA stimulation) [%]	inhibition at 50 µM ([3]; PMA stimulation) [%]	inhibition at 10 µM ([3]; zymosan stimulation) [%]	inhibition at 50 µM ([3]; zymosan stimulation) [%]	inhibition at 10 µM ([4]; LPS stimulation) [%]	inhibition at 50 µM ([4]; LPS stimulation) [%]	also measured
CC[C@H]1OC(=O)[C@H](C)[C@@H](OC(=O)CCN(CC)CC)[C@H](C)[C@@H](O[C@@H]2O[C@H](C)C[C@H](N(C)C)C2O)[C@](C)(O)C[C@@H](C)CN(C)[C@H](C)[C@@H](O)[C@]1(C)O (stereo in doubt) [Example 12, 3-O-(3-Diethylamino-propionyl)-3-O-decladinosyl-azithromycin]	22	0	30	75	33	0	50	71	54	92	29	72	9	19	43	93	0	96	16	51	inhibition at 10 µM ([4]; PMA stimulation): 31%; inhibition at 50 µM ([4]; PMA stimulation): 27%; inhibition at 10 µM ([4]; zymosan stimulation): 20%; inhibition at 50 µM ([4]; zymosan stimulation): 52%; Percentage of viable cells after treatment ([5]; 12.5 μM): >90%; Percentage of viable cells after treatment ([5]; 50 μM): >90%; Percentage of viable cells after treatment ([6]; 12.5 μM): >95%; Percentage of viable cells after treatment ([6]; 50 μM): >90%; Percentage of viable cells after treatment ([7]; 12.5 μM): >90%; Percentage of viable cells after treatment ([7]; 50 μM): 100%
C=CC(=O)O[C@H]1[C@H](C)[C@@H](O[C@@H]2O[C@H](C)C[C@H](N(C)C)[C@H]2O)[C@](C)(OC)C[C@@H](C)C(=O)[C@H](C)[C@@H](O)[C@](C)(O)[C@@H](CC)OC(=O)[C@@H]1C [Example 4, 3-O-Propenoyl-3-O-decladinosyl-6-O-methyl-erythromycin A]	0	100	69	100	0	100	75	100	97	100	61	100	37	100	96	100	55	100	29	100	inhibition at 10 µM ([4]; PMA stimulation): 55%; inhibition at 50 µM ([4]; PMA stimulation): 90%; inhibition at 10 µM ([4]; zymosan stimulation): 10%; inhibition at 50 µM ([4]; zymosan stimulation): 100%; Percentage of viable cells after treatment ([5]; 12.5 μM): >95%; Percentage of viable cells after treatment ([5]; 50 μM): >95%; Percentage of viable cells after treatment ([6]; 12.5 μM): >85%; Percentage of viable cells after treatment ([6]; 50 μM): >95%; Percentage of viable cells after treatment ([7]; 12.5 μM): 100%; Percentage of viable cells after treatment ([7]; 50 μM): 100%
CC[C@H]1OC(=O)[C@H](C)[C@@H](OC(=O)CCN(CC)CC)[C@H](C)[C@@H](O[C@@H]2O[C@H](C)C[C@H](NC)[C@@H]2O)[C@](C)(OC)C[C@@H](C)C(=O)N[C@H](C)[C@@H](O)[C@]1(C)O [Example 10, 3-O-(3-Diethylamino-propionyl)-3-O-decladinosyl-3′-N-demethyl-6-O-methyl-9a-aza-9a-homoerythromycin A]	6	65	68	78	10	75	70	88	80	94	78	100	35	92	69	92	40	100	13	77	inhibition at 10 µM ([4]; PMA stimulation): 23%; inhibition at 50 µM ([4]; PMA stimulation): 76%; inhibition at 10 µM ([4]; zymosan stimulation): 6%; inhibition at 50 µM ([4]; zymosan stimulation): 82%; Percentage of viable cells after treatment ([5]; 12.5 μM): >80%; Percentage of viable cells after treatment ([5]; 50 μM): >90%; Percentage of viable cells after treatment ([6]; 12.5 μM): 100%; Percentage of viable cells after treatment ([6]; 50 μM): 100%; Percentage of viable cells after treatment ([7]; 12.5 μM): 100%; Percentage of viable cells after treatment ([7]; 50 μM): 100%
CC[C@H]1OC(=O)[C@H](C)[C@@H](OC(=O)CCN2CCN(CCN(CC)CC)CC2)[C@H](C)[C@@H](O[C@@H]2O[C@H](C)C[C@H](N(C)C)[C@H]2O)[C@](C)(OC)C[C@@H](C)C(=O)N[C@H](C)[C@@H](O)[C@]1(C)O [Example 18, 6-O-Methyl-3-O-decladinosyl-3-O-{3-[4-(2-Diethylamino-ethyl)-piperazin-1-yl]-propionyl}-9a-aza-9a-homoerythromycin A]	7	0	50	82	12	0	44	73	66	87	32	76	9	50	53	47	18	47	1	30	inhibition at 10 µM ([4]; PMA stimulation): 16%; inhibition at 50 µM ([4]; PMA stimulation): 13%; inhibition at 10 µM ([4]; zymosan stimulation): 3%; inhibition at 50 µM ([4]; zymosan stimulation): 21%; Percentage of viable cells after treatment ([5]; 12.5 μM): 100%; Percentage of viable cells after treatment ([5]; 50 μM): 100%; Percentage of viable cells after treatment ([6]; 12.5 μM): >95%; Percentage of viable cells after treatment ([6]; 50 μM): 100%; Percentage of viable cells after treatment ([7]; 12.5 μM): 100%; Percentage of viable cells after treatment ([7]; 50 μM): 100%
